Data on three molecules can be found in patent US20180171411A1, “GFRalpha1 AS A BIOMARKER FOR CISPLATIN-INDUCED CHEMORESISTANCE AND METASTASIS” (THE BOARD OF REGENTS OF THE UNIVERSITY OF TEXAS SYSTEM, priority 2015, published 2018).

For the assay, the system named is LC3 puncta in MG-63 cells. The experiment in a line: LC3 puncta formation (mRFP-GFP-LC3 reporter). It is filed as cell-based, human. The following applies: for LC3 puncta formation: cisplatin 20 μM, 24 hr. The procedure: FIG. 3. GFRα1-induced autophagy enhances the chemoresistance of osteosarcoma cells induced by cisplatin. (a) Control and GFRα1-deficient MG-63 cells were transiently transfected with a mRFP-GFP tandem fluorescent-tagged LC3 (mRFP-GFP-LC3) vector and then treated with cisplatin (20μM) for 24 hr. Left, representative images of RFP-LC3 and GFP-LC3 puncta. Scale bar, 20 μm. Right, quantitative analysis of the number of yellow puncta and the number of RFP-LC3 puncta in the combined images. The values are represented as a mean±s.d.m. (n=3). ** denotes p<0.05 by t-test. (b) Control and GFRα1-deficient MG-63 cells were treated with cisplatin (20 μM) for 24 hr and then stained with acridine orange. Top, representative images of cells stained with acridine orange. Scale bar, 20 μm. Bottom, quantitative analysis of the number of AVOs. The values are represented as a mean±s.d.m. (n=3). ** denotes p<0.05 by t-test. (c) Control and GFRα1-deficient MG-63 cells were treated with cisplatin (20 μM) for 24 hr and then analyzed by TEM. Top, representative images of autophagic vacuoles (yellow arrows) detected after cisplatin treatment in control MG-63 cells. Scale bar, 100 nm. Bottom, quantitative analysis of the number of autophagic vacuoles. The values are represented as a mean±s.d.m. (n=3). ** denotes p<0.05 by t-test. (d) Immunoblot analysis of control and GFRα1-overexpressing osteosarcoma cell lysates with antibodies specific for GFRα1, LC3 and β-actin. GFRα1-overexpressing MG-63 cells were treated with DMSO, 3-MA (10 μM) or Baf (100 nM). (e) Quantitative analysis of the number of yellow puncta and the number of RFP-LC3 puncta in control and GFRα1-overexpressing MG-63 cells. Control and GFRα1-overexpressing MG-63 cells were transiently transfected with an RFP-GFP tandem fluorescent-tagged LC3 (mRFP-GFP-LC3) and then treated with cisplatin (20 μM) for 24 hr. […] (g) Control and GFRα1-overexpressing MG-63 cells were treated with cisplatin (20 μM) for 24 hr and then stained with acridine orange. Top, representative images of cells stained with acridine orange. Scale bar, 20 μm. Bottom, quantitative analysis of the number of AVOs. The values are represented as a mean±s.d.m. (n=3). ** denotes p<0.05 by t-test. (h) Control and GFRα1-overexpressing MG-63 cells were treated with cisplatin (20 μM) for 24 hr and then analyzed by TEM. Top, representative images of autophagic vacuoles detected after cisplatin treatment in control and GFRα1-overexpressing MG-63 cells. Scale bar, 100 nm. Bottom, quantitative analysis of the number of autophagic vacuoles. The values are represented as a mean±s.d.m. (n=3). ** denotes p<0.05 by t-test. (i) Cell viability of GFRα1-overexpressing osteosarcoma cells after cisplatin treatment in the presence of autophagy inhibitors. Control or GFRα1-overexpressing MG-63 cells were cultured with DMSO, 3-MA or Baf, and then treated with cisplatin (20 μM) for 24 hr. Cell viability was measured using the WST-1 assay. The values are represented as a mean±s.d.m. (n=3). ** denotes p<0.05 by t-test. (j) Cell viability of GFRα1-overexpressing osteosarcoma cells after cisplatin treatment in the presence of Beclin 1 (20 nM) or HMGB1 (20 nM) […] siRNA. Control or GFRα1-overexpressing MG-63 cells were cultured with Beclin 1 or HMGB1 siRNA for 48 hr and then treated with cisplatin (20 μM) for 24 hr. Cell viability was measured using the WST-1 assay. The values are represented as a mean±s.d.m. (n=3). ** denotes p<0.05 by t-test. (k) The effect of GFRα1 deficiency or overexpression on colony formation in the presence of cisplatin (20 μM). Equal number (1×10^4 cells) of control (control shRNA), GFRα1-deficient (GFRα1 shRNA), control (empty vector), and GFRα1-overexpressing (GFRα1 expressing vector) MG-63 cells were plated. All of cell lines were incubated with cisplatin (20 μM) for 10 days. Colonies were stained by crystal violet for visualization. Left, representative images of colony formation. Right, quantitative analysis of the number of colonies and plating efficiency. […]

With `N.N.[Cl][Pt][Cl]` [cisplatin, Cis-Diamineplatinum(II) dichloride], the LC3 puncta formation result by setting is: (GFRα1-deficient MG-63 cells) “no change”; (MG-63 cells transfected with control shRNA) “significantly increased”.
Take `Cn1cnc(N)c2ncnc1-2` [3-MA, 3-methyladenine]: the cisplatin-induced puncta formation entry (MG-63 cells pretreated with 3-MA (10 mM) 2 hr, cisplatin 20 μM 24 hr) is listed as “blocked”. Moreover, the puncta formation result (control and GFRα1-overexpressing cells, 3-MA pretreatment 2 hr) is “blocked”.

B1: GDNF: glial cell line-derived neurotrophic factor, the major ligand of GFRα1 (protein, UniProt P39905 78-211, looked up)
Glial cell line-derived …: SPDKQMAVLPRRERNRQAAAANPENSRGKGRRGQRGKNRGCVLTAIHLNVTDLGLGYETKEELIFRYCSGSCDAAETTYDKILKNLSRNRRLVSDKVGQACCRPIAFDDDLSFLDDNLVYHILRKHSAKRCGCI
For B1, the “GFRα1-mediated autophagy after cisplatin treatment” value (control and GFRα1-overexpressing MG-63 cells, GDNF) is “did not have an effect”. Also, the “LC3 puncta formation on addition of GDNF” value (control or GFRα1-overexpressing cells, GDNF 24 h) is recorded as “no significant effect”.
